Our source for the TGI and GI50 values is PubChem BioAssay (NCI).

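1) Cells in 96-well plates. 2) Compound, 48 h, 5 concentrations. 3) Linear interpolation between surrounding doses. 4) Unreached endpoint = highest concentration. GI50 = concentration required for 50% inhibition of growth. The concentration for full growth arrest is given as TGI.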

Some test systems named below: BT-549 breast; HOP-62 NSCLC; IGROV1 ovarian; KM12 colon; MDA-MB-435; OVCAR-4 ovarian; PC-3 prostate; RXF 393 renal; SN12C renal; SR leukemia; TK-10 renal.
Holding throughout (test): DTP human tumour cell line panel, 48 h

Turning to `Cc1ccc(NC(=S)NNC(=O)c2cc(-c3ccccc3)nc3ccccc23)cc1C`, the concentration for total growth inhibition (TGI) – broadly, the concentration at which net growth stops – with BT-549 breast amounted to 44.2 µM; with HOP-62 NSCLC, 54.8 µM; with IGROV1 ovarian, 63.6 µM; with KM12 colon, 80 µM; in the assay with MDA-MB-435, 59.5 µM; with OVCAR-4 ovarian, 58.2 µM. Besides, the TGI in the assay on PC-3 prostate is 42.9 µM; with RXF 393 renal, 55.5 µM; in the assay with SN12C renal, 38.1 µM; in the assay with SR leukemia, 36.4 µM; in the assay with TK-10 renal, 63.1 µM.
Turning to `O=C(O)c1cc2c(cc1S(=O)(=O)O)C1C(C3C2C2(Cl)C(Cl)=C(Cl)C3(Cl)C2(Cl)Cl)C2(Cl)C(Cl)=C(Cl)C1(Cl)C2(Cl)Cl` (stereo not drawn), the TGI in the assay with BT-549 breast was above 100 µM; with HOP-62 NSCLC, 89.1 µM; in the assay with IGROV1 ovarian, above 100 µM; in the assay with KM12 colon, above 100 µM; in the assay with MDA-MB-435, above 100 µM; with OVCAR-4 ovarian, above 100 µM. The TGI with PC-3 prostate was above 100 µM; in the assay with RXF 393 renal, above 100 µM; in the assay on SN12C renal it was 46.4 µM; in the assay with SR leukemia it was 74.7 µM; in the assay with TK-10 renal it was above 100 µM.
For `Cn1c2c(c3ccccc31)CC(=O)N1CCCCC1C21OCCO1` (stereo not drawn), the TGI in the assay with BT-549 breast, in the assay on HOP-62 NSCLC, with IGROV1 ovarian, with KM12 colon, in the assay on MDA-MB-435 and in the assay with OVCAR-4 ovarian was above 100 µM each time. The TGI with PC-3 prostate, in the assay on RXF 393 renal, in the assay on SN12C renal, in the assay with SR leukemia and with TK-10 renal was above 100 µM each time.
Regarding `COc1ccc2c(-c3ccc(O)cc3)c(Oc3ccccc3)c(=O)oc2c1`, the TGI in the assay on BT-549 breast is above 100 µM; with HOP-62 NSCLC it was above 100 µM; in the assay on IGROV1 ovarian it was above 62.3 µM; in the assay on KM12 colon it was above 100 µM; in the assay on MDA-MB-435 it was above 100 µM; in the assay on OVCAR-4 ovarian, above 100 µM. Further, the total growth inhibition concentration (TGI) in the assay with PC-3 prostate is above 100 µM; in the assay on RXF 393 renal it was above 47.8 µM; in the assay with SN12C renal it was above 42.1 µM; with SR leukemia, above 23.4 µM; in the assay with TK-10 renal, 18.1 µM.
`C=C1CC(CNc2cc(Cl)nc(N)n2)C1`: the concentration for total growth inhibition (TGI) in the assay on BT-549 breast, in the assay with HOP-62 NSCLC, with IGROV1 ovarian, in the assay with KM12 colon, with MDA-MB-435 and in the assay with OVCAR-4 ovarian was above 100 µM in each case. The total growth inhibition concentration (TGI) in the assay with PC-3 prostate, in the assay on RXF 393 renal, in the assay on SN12C renal, in the assay on SR leukemia and with TK-10 renal was above 100 µM each time.
Consider `C=CC1(CBr)CCC(C(C)(C)Br)O1` (stereo not drawn), for which the concentration for total growth inhibition (TGI) in the assay with BT-549 breast stood at 30.4 µM; with HOP-62 NSCLC it was 30 µM; with IGROV1 ovarian, 22.7 µM; in the assay on KM12 colon it was 26.1 µM; with MDA-MB-435, 26.6 µM; in the assay with OVCAR-4 ovarian, 28 µM. Also, the TGI in the assay with PC-3 prostate is 24.5 µM; in the assay on RXF 393 renal, 27.3 µM; in the assay with SN12C renal it was 33.1 µM; with SR leukemia, 8.58 µM; with TK-10 renal it was 28.5 µM.
For `CC(C)(N=NC(C)(C)C1=NCCN1)C1=NCCN1`, the TGI with BT-549 breast, in the assay on HOP-62 NSCLC, in the assay with IGROV1 ovarian, in the assay on KM12 colon, with MDA-MB-435 and in the assay on OVCAR-4 ovarian was above 100 µM in each case. For the same molecule, the TGI in the assay with PC-3 prostate, in the assay with RXF 393 renal, in the assay on SN12C renal, with SR leukemia and with TK-10 renal was above 100 µM in each case. Besides, in the assay with SR leukemia, the GI50 (in general, the concentration that inhibits growth by half) was above 100 µM.
For the molecule `CCOC(=O)NNC1(SC)NC(=O)c2c(cc(Cl)oc2=O)O1` (stereo not drawn), the TGI in the assay with BT-549 breast was 12.2 µM; with HOP-62 NSCLC it was 25.6 µM; in the assay on IGROV1 ovarian, 14.5 µM; in the assay on KM12 colon it was 23.6 µM; in the assay on MDA-MB-435 it was 17.6 µM; in the assay with OVCAR-4 ovarian, 18.9 µM. In addition, the TGI with PC-3 prostate came to 13.2 µM; with RXF 393 renal, 6.93 µM; with SN12C renal, 14.7 µM; in the assay on SR leukemia, 6.69 µM; in the assay with TK-10 renal it was 10.1 µM.
In the case of `CNC=O`, the TGI was above 10000 µM in the assay on BT-549 breast; below 3980 µM in the assay with HOP-62 NSCLC; above 10000 µM in the assay with IGROV1 ovarian; above 10000 µM in the assay with KM12 colon; above 10000 µM in the assay on MDA-MB-435; above 10000 µM with OVCAR-4 ovarian. Also, the concentration for total growth inhibition (TGI) was above 10000 µM with PC-3 prostate; above 10000 µM in the assay with RXF 393 renal; above 7740 µM with SN12C renal; above 10000 µM in the assay with SR leukemia; above 10000 µM with TK-10 renal.
Take `CC(=O)NC1CCC(NC(=O)OC(C)(C)C)C(NC(=O)OC(C)(C)C)C1` (stereo not drawn): the TGI with BT-549 breast, in the assay with HOP-62 NSCLC, in the assay on IGROV1 ovarian, in the assay with KM12 colon, in the assay with MDA-MB-435 and in the assay on OVCAR-4 ovarian was above 100 µM each time. Moreover, the concentration for total growth inhibition (TGI) with PC-3 prostate, in the assay with RXF 393 renal, in the assay with SN12C renal, in the assay on SR leukemia and in the assay with TK-10 renal was above 100 µM in each case.
As for `Cc1ccnc2c1c(=O)c1ccccc1n2C`, the total growth inhibition concentration (TGI) with BT-549 breast was 81.9 µM; in the assay on HOP-62 NSCLC it was above 100 µM; in the assay on IGROV1 ovarian, above 100 µM; in the assay on KM12 colon it was above 100 µM; in the assay with MDA-MB-435 it was above 100 µM; in the assay on OVCAR-4 ovarian, above 100 µM. For the same molecule, the concentration for total growth inhibition (TGI) is above 100 µM in the assay on PC-3 prostate; above 100 µM in the assay on RXF 393 renal; above 100 µM in the assay with SN12C renal; above 100 µM in the assay with SR leukemia; 89.8 µM in the assay with TK-10 renal.
For `O=S(=O)(O)Nc1ccc(-c2nc3ccccc3s2)cc1Cl`, the concentration for total growth inhibition (TGI) in the assay with BT-549 breast, in the assay on HOP-62 NSCLC, in the assay with IGROV1 ovarian, in the assay with KM12 colon, in the assay with MDA-MB-435 and in the assay with OVCAR-4 ovarian was above 100 µM in each case. In addition, the TGI in the assay on PC-3 prostate, in the assay with RXF 393 renal, in the assay with SN12C renal, with SR leukemia and in the assay on TK-10 renal was above 100 µM throughout.
